PubChem BioAssay AID1845206 (Molecular Pharmacology Branch, DTP, NCI, 2023)

Test system: NCI-H1618 multicellular tumor spheroid viability
Experiment: Anticancer human tumor NCI-H1618 cell line growth inhibition;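 further: spheroids exposed to agents for 7 days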
Details: for IC50: curve of first compound; for viability, T/C: stronger effect = lower value; active means viability on the fitted dose curve at most 10% of control; inactive means the rest
Summary of the method: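 Single agents and combinations were tested on spheroids built from tumor cells plus HUVEC and hMSC, at half-log dilutions starting at or near clinical Cmax, else 10 microM; final DMSO 0.25% (v/v).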

[1] = second compound 30 pM, first compound 0.0316 µM
[2] = second compound 30 pM, first compound 0.1 µM
[3] = second compound 30 pM, first compound 0.316 µM
[4] = second compound 30 pM, first compound 1 µM
[5] = second compound 30 pM, first compound 3.16 µM
[6] = second compound 30 pM, first compound 10 µM
[7] = second compound 94.9 pM, first compound 0.0316 µM
[8] = second compound 94.9 pM, first compound 0.1 µM
[9] = second compound 94.9 pM, first compound 0.316 µM
[10] = second compound 94.9 pM, first compound 1 µM
[11] = second compound 94.9 pM, first compound 3.16 µM
[12] = second compound 94.9 pM, first compound 10 µM
[13] = second compound 0.0003 µM, first compound 0.0316 µM
[14] = second compound 0.0003 µM, first compound 0.1 µM
[15] = second compound 0.0003 µM, first compound 0.316 µM
[16] = second compound 0.0003 µM, first compound 1 µM
[17] = second compound 0.0003 µM, first compound 3.16 µM
[18] = second compound 0.0003 µM, first compound 10 µM
[19] = second compound 0.000949 µM, first compound 0.0316 µM
[20] = second compound 0.000949 µM, first compound 0.1 µM
[21] = second compound 0.000949 µM, first compound 0.316 µM
[22] = second compound 0.000949 µM, first compound 1 µM
[23] = second compound 0.000949 µM, first compound 3.16 µM
[24] = second compound 0.000949 µM, first compound 10 µM
[25] = second compound 0.003 µM, first compound 0.0316 µM
[26] = second compound 0.003 µM, first compound 0.1 µM
[27] = second compound 0.003 µM, first compound 0.316 µM
[28] = second compound 0.003 µM, first compound 1 µM
[29] = second compound 0.003 µM, first compound 3.16 µM
[30] = second compound 0.003 µM, first compound 10 µM

Cn1ncnc1[C@H]1c2n[nH]c(=O)c3cc(F)cc(c23)N[C@@H]1c1ccc(F)cc1 + Cn1nnc2c(C(N)=O)ncn2c1=O
active: viability, T/C (second compound 1 µM, first compound 0.0949 µM) 4.42% | viability, T/C (second compound 1 µM, first compound 0.3 µM) 1.85% | viability, T/C (second compound 1 µM, first compound 0.949 µM) 2.02% | viability, T/C (second compound 1 µM, first compound 3 µM) 2.04% | viability, T/C (second compound 10 µM, first compound 0.03 µM) 1.53% | viability, T/C (second compound 10 µM, first compound 0.0949 µM) 2.45% | viability, T/C (second compound 10 µM, first compound 0.3 µM) 2.8% | viability, T/C (second compound 10 µM, first compound 0.949 µM) 18.3% | viability, T/C (second compound 10 µM, first compound 3 µM) 1.95% | viability, T/C (second compound 31.6 µM, first compound 0.00949 µM) 1.95% | viability, T/C (second compound 31.6 µM, first compound 0.03 µM) 1.94% | viability, T/C (second compound 31.6 µM, first compound 0.0949 µM) 3.12% | viability, T/C (second compound 31.6 µM, first compound 0.3 µM) 1.9% | viability, T/C (second compound 31.6 µM, first compound 0.949 µM) 1.85% | viability, T/C (second compound 31.6 µM, first compound 3 µM) 2.06% | viability, T/C (second compound 100 µM, first compound 0.00949 µM) 1.84% | viability, T/C (second compound 100 µM, first compound 0.03 µM) 2.1% | viability, T/C (second compound 100 µM, first compound 0.0949 µM) 2.47% | viability, T/C (second compound 100 µM, first compound 0.3 µM) 2.51% | viability, T/C (second compound 100 µM, first compound 0.949 µM) 18.2% | viability, T/C (second compound 100 µM, first compound 3 µM) 2.29%
< 9.49 nM: IC50 (second compound 3.16 µM) | IC50 (second compound 10 µM) | IC50 (second compound 31.6 µM) | IC50 (second compound 100 µM)
9.72 nM: IC50 (second compound 1 µM)
inactive: viability, T/C (second compound 1 µM, first compound 0.00949 µM) 50.5% | viability, T/C (second compound 1 µM, first compound 0.03 µM) 26.7% | viability, T/C (second compound 3.16 µM, first compound 0.00949 µM) 3.96% | viability, T/C (second compound 3.16 µM, first compound 0.03 µM) 22.4% | viability, T/C (second compound 3.16 µM, first compound 0.0949 µM) 21.4% | viability, T/C (second compound 3.16 µM, first compound 0.3 µM) 1.75% | viability, T/C (second compound 3.16 µM, first compound 0.949 µM) 1.84% | viability, T/C (second compound 3.16 µM, first compound 3 µM) 19.8% | viability, T/C (second compound 10 µM, first compound 0.00949 µM) 19.2%

[2H]c1nc(C)nc([2H])c1-c1cc(NC[C@@H](C)c2cccc3c(C(=O)NC)ccnc23)ncn1 + COc1cc2c(cc1O)CCNC21CSC2c3c(OC(C)=O)c(C)c4c(c3C(COC1=O)N1C(O)C3Cc5cc(C)c(OC)c(O)c5C(C21)N3C)OCO4
active: viability, T/C [13] 5.13% | viability, T/C [14] 2.89% | viability, T/C [15] 3.41% | viability, T/C [16] 5.38% | viability, T/C [17] 18.8% | viability, T/C [18] 3.93% | viability, T/C [19] 3.46% | viability, T/C [20] 3.49% | viability, T/C [21] 3.75% | viability, T/C [22] 4.59% | viability, T/C [23] 4.63% | viability, T/C [24] 4.69% | viability, T/C [25] 2.53% | viability, T/C [26] 3.55% | viability, T/C [27] 4.4% | viability, T/C [28] 3.2% | viability, T/C [29] 1.87% | viability, T/C [30] 5.37%
> 10000 nM: IC50 (second compound 30 pM)
< 31.6 nM: IC50 (second compound 0.0003 µM) | IC50 (second compound 0.000949 µM) | IC50 (second compound 0.003 µM)
inactive: viability, T/C [1] 101% | viability, T/C [2] 93.8% | viability, T/C [3] 87.8% | viability, T/C [4] 103% | viability, T/C [5] 93.9% | viability, T/C [6] 83.3% | viability, T/C [7] 90.6% | viability, T/C [8] 61.4% | viability, T/C [9] 24.4% | viability, T/C [10] 55.4% | viability, T/C [11] 52.7% | viability, T/C [12] 55.7%
249 nM: IC50 (second compound 94.9 pM)

COc1ccc([C@@H](O)c2cc(-c3ncnc4cc(N5CCOCC5)ccc34)c(F)cc2Cl)nn1 + COc1cc2c(cc1O)CCNC21CSC2c3c(OC(C)=O)c(C)c4c(c3C(COC1=O)N1C(O)C3Cc5cc(C)c(OC)c(O)c5C(C21)N3C)OCO4
active: viability, T/C [12] 3.93% | viability, T/C [16] 3.02% | viability, T/C [17] 3.64% | viability, T/C [18] 0.49% | viability, T/C [19] 4.34% | viability, T/C [20] 4.36% | viability, T/C [21] 3.33% | viability, T/C [22] 3.78% | viability, T/C [23] 5.45% | viability, T/C [24] 0.45% | viability, T/C [25] 2.98% | viability, T/C [26] 4.77% | viability, T/C [27] 4.99% | viability, T/C [28] 3.43% | viability, T/C [29] 2.67% | viability, T/C [30] 1.04%
1450 nM: IC50 (second compound 94.9 pM)
< 31.6 nM: IC50 (second compound 0.0003 µM) | IC50 (second compound 0.000949 µM) | IC50 (second compound 0.003 µM)
inactive: viability, T/C [1] 94.5% | viability, T/C [2] 103% | viability, T/C [3] 104% | viability, T/C [4] 97.6% | viability, T/C [5] 55.8% | viability, T/C [6] 15% | viability, T/C [7] 75.4% | viability, T/C [8] 82.7% | viability, T/C [9] 55.5% | viability, T/C [10] 65.7% | viability, T/C [11] 32.6% | viability, T/C [13] 14.8% | viability, T/C [14] 29.8% | viability, T/C [15] 13.9%
3720 nM: IC50 (second compound 30 pM)
